Data taken from patent US20030181401A1, “Insulin secretion promoter” (KYOWA HAKKO KOGYO CO., LTD., priority 2002, published 2003).

What was measured:
Assay type in all cases: in vivo
db/db mice [1] = test: Test Example 5: serum insulin in glucose tolerance test after 7-day oral dosing of saccharides; conditions: for insulin concentration during glucose loading compared with the control group (in words): continuous daily oral dosing; for Serum insulin concentration after glucose loading, 30 minutes / Serum insulin concentration after glucose loading, 120 minutes / Serum insulin concentration after glucose loading, Zero minute: oral 200 + 300 mg/kg daily, 7 days, glucose 2 g/kg oral, mean ± SD
Experimental: (§1) Groups of male 9-week-old db/db mice (Clea Japan, Inc.) each consisting of 6 mice were fed CE-2 (Clea Japan, Inc.) for one week, so as to accustom the animals to the environment.
After acclimation, individual aqueous 10% solutions of lacto-N-neotetraose (abbreviated as “LNnT” hereinafter) and NeuAc were orally administered to the mice at 200 mg (saccharide)/kg body weight in the morning and at 300 mg (saccharide)/kg body weight in the evening. The same volume of saline was administered to the control group. The individual aqueous saccharide solutions and saline were both dosed daily to the mice for 7 days. During the dosing period, CE-2 was given together with drinking water ad libitum.
(§2) After 18-hour starvation from the final dosing on day 7, an aqueous 40% glucose solution was orally administered to 2 g (glucose)/kg body weight to the mice, to perform glucose tolerance test. Zero minute and 30 minutes after glucose loading, blood was taken from a tail vein. […] Blood was centrifuged (4° C., 10000 rpm, 10 minutes), to obtain serum.
(§3) Insulin in the serum recovered was assayed by enzyme immunoassay using Lebis Insulin kit (for rats-T) (Shibayagi, Co., Ltd.) in the same manner as in the Test Example 1.

db/db mice [2] = test: Test Example 4: serum insulin in glucose tolerance test after 7-day oral dosing of saccharides; conditions: for serum insulin concentration during glucose loading compared with the control group (in words): continuous daily oral dosing; for Serum insulin concentration after glucose loading, 30 minutes / Serum insulin concentration after glucose loading, 120 minutes / Serum insulin concentration after glucose loading, Zero minute: oral 200 + 300 mg/kg daily, 7 days, glucose 2 g/kg oral, mean ± SD
Experimental: as §1
After acclimation, individual aqueous 10% solutions of 3′-sialyllactose (abbreviated as “3′-SL” hereinafter), 6′-sialylactose (abbreviated as “6′-SL”) and 2′-FL were orally administered to the mice at 200 mg (saccharide)/kg body weight in the morning and at 300 mg (saccharide)/kg body weight in the evening. The both volume of saline was administered to the control group. The individual aqueous saccharide solutions and saline were both dosed daily to the mice for 7 days. During the dosing period, CE-2 was given together with drinking water ad libitum.
as §2, §3

db/db mice [3] = test: Test Example 3: serum insulin on day 8 after 7-day oral dosing of saccharides; conditions: for serum insulin concentration compared with the control group (in words): continuous daily oral dosing; for Serum insulin concentration after dosing of the individual saccharides: oral 200 + 300 mg/kg daily, 7 days, blood on day 8, no glucose loading, mean ± SD
Experimental: Group of male 9-week-old db/db mice (Clea Japan, Inc.) each consisting of 6 mice were fed CE-2 (Clea Japan, Inc.) for one week, so as to accustom the animals to the environment.
After acclimation, individual aqueous 10% solutions of globotriose (abbreviated “globo” hereinafter), N-acetyllactosamine (abbreviated as “LacNac” hereinafter) and N-acetylneuraminic acid (abbreviated as “NeuAc” hereinafter) were orally administered to the mice at 200 mg (saccharide)/kg body weight in the morning and at 300 mg (saccharide)/kg body weight in the evening.
The same volume of saline was administered to the control group. The individual aqueous saccharide solutions and saline were both dosed daily to the mice for 7 days. During the dosing period, CE-2 was given together with drinking water ad libitum.
Blood was centrifuged (4° C., 10000 rpm, 10 minutes), to obtain serum.
as §3

ICR mice [4] = test: Test Example 6: serum insulin after intravenous saccharide with simultaneous oral glucose loading
Experimental: (§4) Groups of male 9-week-old ICR mice (Japan SLC, Inc.) each consisting of 7 mice were fed CE-2 (Clea Japan, Inc.) for one week, so as to accustom the animals to the environment. Then, the mice were fasted for 18 hours.
(§5) An aqueous 10% solution of 2′-FL or NeuAc was intravenously administered to the mice to 500 mg (saccharide)/kg body weight, while an aqueous 40% glucose solution was orally administered simultaneously to 2 g (glucose)/kg body weight, to the mice. To the control group, physiological saline was administered intravenously, while glucose was orally administered simultaneously to 2 g/kg body weight. Zero minute and 30 minutes after glucose loading, blood was taken from a tail vein. […] Blood was centrifuged (4° C., 10000 rpm, 10 minutes), to obtain serum.
Insulin in the serum recovered was assayed by enzyme immunoassay using Lebis Insulin kit (for mice-T) (Shibayagi, Co., Ltd.) in the same manner as in the Test Example 2.

ICR mice [5] = test: Test Example 6: serum glucose after intravenous saccharide with simultaneous oral glucose loading
Experimental: as §4, §5
Furthermore, the glucose concentration in the serum recovered was also assayed. The glucose concentration was assayed, using Glucose CII-TEST WAKO (WAKO Pure Chemical Industries, Ltd.). 2 μl of the recovered serum was placed in a 96-well plate, followed by addition of 200 μl of the chromogenic solution attached to the kit, for incubation at 37° C. for 10 minutes. After incubation, the absorbance at 490 nm was assayed with a plate reader. Herein, a standard curve was prepared by using aqueous 500 mg/dl glucose solution as the standard solution to dilute the standard solution appropriately for the same reaction as for the serum, and plotting the relation between the concentration and the absorbance (490 nm). Based on the prepared standard curve and the absorbance from the reaction with the serum, the glucose concentration in the serum was determined.

[6] = ICR mice fasted 18 hours, 500 mg/kg intravenous with simultaneous glucose 2 g/kg oral, 30 minutes, mean ± SD
[7] = ICR mice fasted 18 hours, 500 mg/kg intravenous with simultaneous glucose 2 g/kg oral, 120 minutes, mean ± SD

Structure (SMILES)	insulin concentration during glucose loading compared with the control group (in words) (db/db mice [1])	Serum insulin concentration after glucose loading, 30 minutes (db/db mice [1]) [ng/mL]	Serum insulin concentration after glucose loading, 120 minutes (db/db mice [1]) [ng/mL]	Serum insulin concentration after glucose loading, Zero minute (db/db mice [1]) [ng/mL]	serum insulin concentration during glucose loading compared with the control group (in words) (db/db mice [2])	Serum insulin concentration after glucose loading, 30 minutes (db/db mice [2]) [ng/mL]	Serum insulin concentration after glucose loading, 120 minutes (db/db mice [2]) [ng/mL]	Serum insulin concentration after glucose loading, Zero minute (db/db mice [2]) [ng/mL]	serum insulin concentration compared with the control group (in words) (db/db mice [3])	Serum insulin concentration after dosing of the individual saccharides (db/db mice [3]) [ng/mL]	further results
CC(=O)N[C@H]1[C@H](O[C@H]2[C@@H](O)[C@@H](CO)O[C@@H](O[C@H]3[C@H](O)[C@@H](O)C(O)O[C@@H]3CO)[C@@H]2O)O[C@H](CO)[C@@H](O[C@@H]2O[C@H](CO)[C@H](O)[C@H](O)[C@H]2O)[C@@H]1O (mixture of isomers) [LNnT, lacto-N-neotetraose]	increased	21.7 ± 13.8	25.9 ± 13.2	8.9 ± 2.0							
CC(=O)N[C@H]1[C@H]([C@H](O)[C@H](O)CO)O[C@@](O[C@H]2[C@@H](O)[C@@H](CO)O[C@@H](O[C@H]3[C@H](O)[C@@H](O)C(O)O[C@@H]3CO)[C@@H]2O)(C(=O)O)C[C@@H]1O (some centres unmarked) [3′-SL, 3′-sialyllactose]					increased	5.1 ± 1.9	22.0 ± 12.5	6.0 ± 2.2			
CC(=O)N[C@H]1[C@H]([C@H](O)[C@H](O)CO)O[C@@](OC[C@H]2O[C@@H](O[C@H]3[C@H](O)[C@@H](O)[C@H](O)O[C@@H]3CO)[C@H](O)[C@@H](O)[C@H]2O)(C(=O)O)C[C@@H]1O [6′-SL, 6′-sialylactose]					increased	6.6 ± 3.4	17.9 ± 6.3	5.9 ± 3.0			
OC[C@H]1O[C@H](O[C@@H]2[C@H](O)[C@@H](O)[C@H](O[C@H]3[C@H](O)[C@@H](O)C(O)O[C@@H]3CO)O[C@@H]2CO)[C@H](O)[C@@H](O)[C@H]1O (some centres unmarked) [Globo, globotriose]									increased	23.7 ± 16.4	
CC(=O)N[C@H]1C(O)O[C@H](CO)[C@@H](O[C@@H]2O[C@H](CO)[C@H](O)[C@H](O)[C@H]2O)[C@@H]1O (some centres unmarked) [LacNac, N-acetyllactosamine]									increased	26.8 ± 11.5	
CC(=O)N[C@H]1[C@H]([C@H](O)[C@H](O)CO)OC(O)(C(=O)O)C[C@@H]1O (some centres unmarked) [NeuAc, N-acetylneuraminic acid]	increased	18.5 ± 8.5	30.3 ± 10.7	8.9 ± 7.7					increased	68.4 ± 45.9	Serum insulin concentration after glucose loading, 30 minutes (ICR mice [4]; [6]): 178.3 ± 105.5 pg/mL; Serum insulin concentration after glucose loading, 120 minutes (ICR mice [4]; [7]): 384.4 ± 394.1 pg/mL; serum insulin concentration after glucose loading compared with the control group (in words) (ICR mice [4]; ICR mice, intravenous dosing): increased; Serum glucose concentration after glucose loading, 30 minutes (ICR mice [5]; [6]): 300.9 ± 101.6 mg/dL; Serum glucose concentration after glucose loading, 120 minutes (ICR mice [5]; [7]): 197.6 ± 28.8 mg/dL; Serum glucose concentration after glucose loading, Zero minute (ICR mice [5]; ICR mice fasted 18 hours, 500 mg/kg intravenous with simultaneous glucose 2 g/kg oral, zero minute, mean ± SD): 102.6 ± 12.1 mg/dL; increase of the serum glucose concentration compared with the control group (in words) (ICR mice [5]; ICR mice, intravenous dosing): suppressed
